Test results reported in ChEMBL document CHEMBL1133207, “Syntheses and antifilarial profile of 7-chloro-4-(substituted amino) quinolines: a new class of antifilarial agents” (2000).
The source made the active and inactive calls. No cut-off for these calls is given here.

What was measured:
[1] = In vivo macrofilaricidal activity against Acanthocheilonema viteae infection in Mastomys natalensis at 200 mg/kg for 5 days after peroral administration; format: functional; conditions: route oral
[2] = In vivo microfilariacidal activity against Acanthocheilonema viteae infection in Mastomys natalensis at 200 mg/kg for 5 days after peroral administration; format: functional; conditions: route oral
[3] = The compound was evaluated for sterilization effect on female Acanthocheilonema viteae in Mastomys natalensis; format: functional, Mus musculus; set-up: concentration or dose not given beside the values
Mus musculus [4] = experiment: In vivo macrofilaricidal activity against Acanthocheilonema viteae infection in Mastomys natalensis at 200 mg/kg for 5 days after peroral administration; Inactive; format: functional, organism-based; set-up: dose 200 mg/kg
Mus musculus [5] = experiment: In vivo microfilariacidal activity against Acanthocheilonema viteae infection in Mastomys natalensis at 200 mg/kg for 5 days after peroral administration; Inactive; format: functional, organism-based; set-up: dose 200 mg/kg
Mus musculus [6] = organism: Mus musculus; experiment: The compound was evaluated for sterilization effect on female Acanthocheilonema viteae in Mastomys natalensis; Inactive; format: functional, organism-based

## N#Cc1ccc(OCCNc2ccnc3cc(Cl)ccc23)cc1
[1]
  Reduction: 56%
[2]
  Reduction: 0%
[3]
  Reduction: 0%

## Clc1ccc2c(NCCN3CCNCC3)ccnc2c1
Mus musculus [4]
  Reduction: inactive
Mus musculus [5]
  Reduction: inactive
Mus musculus [6]
  Reduction: inactive

## NC(Cc1ccccc1)C(=O)N1CCN(CCNc2ccnc3cc(Cl)ccc23)CC1 (stereo not drawn)
Mus musculus [4]
  Reduction: inactive
Mus musculus [5]
  Reduction: inactive
Mus musculus [6]
  Reduction: inactive

## CC(N)C(=O)N1CCN(CCNc2ccnc3cc(Cl)ccc23)CC1 (stereo not drawn)
[1]
  Reduction: 0%
[2]
  Reduction: 0%
[3]
  Reduction: 100%

## OCCNc1ccnc2cc(Cl)ccc12
[1]
  Reduction: 22%
[2]
  Reduction: 86%
[3]
  Reduction: 0%

## CC(C)(C)OC(=O)NC(Cc1ccccc1)C(=O)N1CCN(CCNc2ccnc3cc(Cl)ccc23)CC1 (stereo not drawn)
[1]
  Reduction: 0%
[2]
  Reduction: 0%
[3]
  Reduction: 50%

## Clc1ccc2c(NCCN3CCN(c4ccccn4)CC3)ccnc2c1
Mus musculus [4]
  Reduction: inactive
Mus musculus [5]
  Reduction: inactive
Mus musculus [6]
  Reduction: inactive

## O=[N+]([O-])c1cc2c(NCCO)ccnc2cc1Cl
[1]
  Reduction: 58%
[2]
  Reduction: 0%
[3]
  Reduction: 0%

## CC(NC(=O)OC(C)(C)C)C(=O)N1CCN(CCNc2ccnc3cc(Cl)ccc23)CC1 (stereo not drawn)
Mus musculus [4]
  Reduction: inactive
Mus musculus [5]
  Reduction: inactive
Mus musculus [6]
  Reduction: inactive

## CCN(CC)C(=O)N1CCN(C)CC1.O=C(O)CC(O)(CC(=O)O)C(=O)O [DIETHYLCARBAMAZINE CITRATE]
[1]
  Reduction: 0%
[2]
  Reduction: 90%
[3]
  Reduction: 0%

## NCC(=O)N1CCN(CCNc2ccnc3cc(Cl)ccc23)CC1
Mus musculus [4]
  Reduction: inactive
Mus musculus [5]
  Reduction: inactive
Mus musculus [6]
  Reduction: inactive

## CCC(C)C(N)C(=O)N1CCN(CCNc2ccnc3cc(Cl)ccc23)CC1 (stereo not drawn)
Mus musculus [4]
  Reduction: inactive
Mus musculus [5]
  Reduction: inactive
Mus musculus [6]
  Reduction: inactive

## O=[N+]([O-])c1ccc(NNc2ccnc3cc(Cl)ccc23)cc1
[1]
  Reduction: 78%
[2]
  Reduction: 41%
[3]
  Reduction: 50%

## O=C(C1CCCN1)N1CCN(CCNc2ccnc3cc(Cl)ccc23)CC1 (stereo not drawn)
Mus musculus [4]
  Reduction: inactive
Mus musculus [5]
  Reduction: inactive
Mus musculus [6]
  Reduction: inactive

## CC(C)(C)OC(=O)NCC(=O)N1CCN(CCNc2ccnc3cc(Cl)ccc23)CC1
[1]
  Reduction: 0%
[2]
  Reduction: 0%
[3]
  Reduction: 63%

## Clc1ccc2c(NCc3ccco3)ccnc2c1
Mus musculus [4]
  Reduction: inactive
Mus musculus [5]
  Reduction: inactive
Mus musculus [6]
  Reduction: inactive

## O=C(O)C(CCCCNc1ccnc2cc(Cl)ccc12)Nc1ccnc2cc(Cl)ccc12 (stereo not drawn)
[1]
  Reduction: 0%
[2]
  Reduction: 85%
[3]
  Reduction: 0%

## CC(C)(C)OC(=O)N1CCCC1C(=O)N1CCN(CCNc2ccnc3cc(Cl)ccc23)CC1 (stereo not drawn)
Mus musculus [4]
  Reduction: inactive
Mus musculus [5]
  Reduction: inactive
Mus musculus [6]
  Reduction: inactive

## ClCCNc1ccnc2cc(Cl)ccc12
Mus musculus [4]
  Reduction: inactive
Mus musculus [5]
  Reduction: inactive
Mus musculus [6]
  Reduction: inactive

## CCC(C)C(NC(=O)OC(C)(C)C)C(=O)N1CCN(CCNc2ccnc3cc(Cl)ccc23)CC1 (stereo not drawn)
Mus musculus [4]
  Reduction: inactive
Mus musculus [5]
  Reduction: inactive
Mus musculus [6]
  Reduction: inactive

## O=[N+]([O-])c1ccc(OCCNc2ccnc3cc(Cl)ccc23)cc1
Mus musculus [4]
  Reduction: inactive
Mus musculus [5]
  Reduction: inactive
Mus musculus [6]
  Reduction: inactive
